According to ChEMBL document CHEMBL1201862, “PubChem BioAssay data set” (2004):
Activity calls are given as the source filed them.

Columns and labels:
[1] = system: HeLa; test: viability loss in HeLa cells – cell-based, ATP luminescence, cherry-pick samples, cytotoxicity control, dose response (AID 687004); type: functional; details: Homo sapiens
[2] = molecular target: T1, Protein skinhead-1 (Caenorhabditis elegans, UniProt P34707); type: functional
T1 sequence (P34707 whole entry): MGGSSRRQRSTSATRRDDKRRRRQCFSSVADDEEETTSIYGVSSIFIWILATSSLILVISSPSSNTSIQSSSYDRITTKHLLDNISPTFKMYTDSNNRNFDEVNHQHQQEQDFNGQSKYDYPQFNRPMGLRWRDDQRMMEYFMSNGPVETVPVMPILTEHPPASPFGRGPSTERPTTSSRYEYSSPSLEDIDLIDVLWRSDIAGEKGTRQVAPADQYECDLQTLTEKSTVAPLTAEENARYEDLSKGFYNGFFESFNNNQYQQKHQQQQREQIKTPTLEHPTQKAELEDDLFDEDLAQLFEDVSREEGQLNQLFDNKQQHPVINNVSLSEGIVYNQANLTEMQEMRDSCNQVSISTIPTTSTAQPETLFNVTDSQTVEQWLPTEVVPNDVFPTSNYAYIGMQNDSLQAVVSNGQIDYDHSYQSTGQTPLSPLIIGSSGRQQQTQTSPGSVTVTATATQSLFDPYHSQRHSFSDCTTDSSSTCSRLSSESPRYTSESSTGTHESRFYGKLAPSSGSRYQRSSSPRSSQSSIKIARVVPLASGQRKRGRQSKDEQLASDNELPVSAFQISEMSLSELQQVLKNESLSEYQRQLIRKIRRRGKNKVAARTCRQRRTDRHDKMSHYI

[3] = molecular target: Beta-galactosidase (Escherichia coli, UniProt Q8VNN2); test: PubChem AID 485352; type: functional
[4] = system: Cryptococcus neoformans; test: Cryptococcus growth inhibition by alamar blue – cell lysis, cherry-picks, replicate tests, mechanism study for C. neoformans antifungal project, dose response (AID 686999); type: functional, organism-based
[5] = molecular target: Troponin, cardiac muscle (Homo sapiens, UniProt P19429+P45379+P63316); test: compounds desensitizing RTF to calcium – biochemical, fluorescence, cardiac regulated thin filaments, triplicate IC50, dose response (AID 504742); type: protein-complex assay
[6] = Counterscreen for AddAB inhibitors: absorbance-based bacterial cell-based high throughput dose response assay for inhibitors of bacterial viability. [Related pubchem assays (depositor defined):AID435030, AID449728, AID449731, AID488942, AID488955, AID488956]; type: functional
[7] = molecular target: T2, Bcl-2-like protein 10 (Homo sapiens, UniProt Q9HD36); test: Bcl-B/TR3 peptide binding disruption – biochemical, fluorescence polarization, FITC-TR3 peptide, selectivity assay for Bfl-1 inhibitor project, primary screen (AID 748);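 also: fluorescence polarization from a fluorescein-labelled TR3 peptide binding purified Bcl-B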
T2 sequence (Q9HD36 whole entry): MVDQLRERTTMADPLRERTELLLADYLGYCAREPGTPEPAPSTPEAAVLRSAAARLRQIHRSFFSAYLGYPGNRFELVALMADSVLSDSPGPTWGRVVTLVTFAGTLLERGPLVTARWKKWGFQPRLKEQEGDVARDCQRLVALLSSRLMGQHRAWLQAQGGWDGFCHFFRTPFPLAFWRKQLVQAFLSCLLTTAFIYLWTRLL

[8] = molecular target: Large T antigen (Simian virus 40, UniProt P03070); type: functional, Betapolyomavirus macacae;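 also: Confirmatory-stage PubChem screen for compounds that inhibit SV40 T antigen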
[9] = molecular target: T3, Caspase-3 (Homo sapiens, UniProt P42574); type: functional;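 also: Dose-response selectivity test against caspase-3 for candidate inhibitors of sentrin-specific proteases (SENPs)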
T3 sequence (P42574 whole entry): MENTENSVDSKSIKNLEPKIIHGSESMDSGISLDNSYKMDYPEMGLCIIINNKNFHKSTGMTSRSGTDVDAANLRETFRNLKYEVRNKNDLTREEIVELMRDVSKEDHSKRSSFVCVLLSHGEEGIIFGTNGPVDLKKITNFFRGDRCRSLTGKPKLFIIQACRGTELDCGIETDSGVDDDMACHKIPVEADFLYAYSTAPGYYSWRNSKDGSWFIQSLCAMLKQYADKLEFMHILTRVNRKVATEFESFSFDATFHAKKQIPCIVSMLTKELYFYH

[10] = molecular target: Tyrosyl-DNA phosphodiesterase 2 (Homo sapiens, UniProt O95551); test: potency against TDP2 phosphodiesterase activity – biochemical, epi absorbance, IC50, dose response (AID 743297)
[11] = molecular target: Photoreceptor-specific nuclear receptor (Homo sapiens, UniProt Q9Y5X4); type: functional;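 also: potency for compounds that break the NR2E3 corepressor complex and count as activators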
[12] = system: Streptococcus sp. 'group A'; test: Streptococcus pyogenes SK(-)GAS viability under kanamycin – luminescence, BacTiterGlo, confirmation, counter-screen for streptokinase expression inhibitor project, dose response (AID 1900); type: functional, organism-based
[13] = system: Streptococcus; test: GAS UMAA2166 growth inhibition – luminescence, BacTiterGlo, counter-screen for streptokinase expression inhibitor project, dose response (AID 1915); type: functional, organism-based;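 also: potency for reduction of bacterial viability or growth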

Chain of Photoreceptor-specific nuclear receptor (Q9Y5X4 whole entry): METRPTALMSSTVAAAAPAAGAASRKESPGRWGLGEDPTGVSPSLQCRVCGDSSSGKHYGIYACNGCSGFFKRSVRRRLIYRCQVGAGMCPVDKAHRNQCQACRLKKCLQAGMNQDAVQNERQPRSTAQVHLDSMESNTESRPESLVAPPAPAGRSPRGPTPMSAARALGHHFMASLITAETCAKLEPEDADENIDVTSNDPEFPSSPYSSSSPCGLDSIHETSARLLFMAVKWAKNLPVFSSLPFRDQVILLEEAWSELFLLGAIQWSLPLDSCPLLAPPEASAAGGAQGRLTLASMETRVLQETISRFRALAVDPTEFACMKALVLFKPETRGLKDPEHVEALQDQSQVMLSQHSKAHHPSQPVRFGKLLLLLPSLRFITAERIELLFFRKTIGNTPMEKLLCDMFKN
Chain of Beta-galactosidase (Q8VNN2 whole entry): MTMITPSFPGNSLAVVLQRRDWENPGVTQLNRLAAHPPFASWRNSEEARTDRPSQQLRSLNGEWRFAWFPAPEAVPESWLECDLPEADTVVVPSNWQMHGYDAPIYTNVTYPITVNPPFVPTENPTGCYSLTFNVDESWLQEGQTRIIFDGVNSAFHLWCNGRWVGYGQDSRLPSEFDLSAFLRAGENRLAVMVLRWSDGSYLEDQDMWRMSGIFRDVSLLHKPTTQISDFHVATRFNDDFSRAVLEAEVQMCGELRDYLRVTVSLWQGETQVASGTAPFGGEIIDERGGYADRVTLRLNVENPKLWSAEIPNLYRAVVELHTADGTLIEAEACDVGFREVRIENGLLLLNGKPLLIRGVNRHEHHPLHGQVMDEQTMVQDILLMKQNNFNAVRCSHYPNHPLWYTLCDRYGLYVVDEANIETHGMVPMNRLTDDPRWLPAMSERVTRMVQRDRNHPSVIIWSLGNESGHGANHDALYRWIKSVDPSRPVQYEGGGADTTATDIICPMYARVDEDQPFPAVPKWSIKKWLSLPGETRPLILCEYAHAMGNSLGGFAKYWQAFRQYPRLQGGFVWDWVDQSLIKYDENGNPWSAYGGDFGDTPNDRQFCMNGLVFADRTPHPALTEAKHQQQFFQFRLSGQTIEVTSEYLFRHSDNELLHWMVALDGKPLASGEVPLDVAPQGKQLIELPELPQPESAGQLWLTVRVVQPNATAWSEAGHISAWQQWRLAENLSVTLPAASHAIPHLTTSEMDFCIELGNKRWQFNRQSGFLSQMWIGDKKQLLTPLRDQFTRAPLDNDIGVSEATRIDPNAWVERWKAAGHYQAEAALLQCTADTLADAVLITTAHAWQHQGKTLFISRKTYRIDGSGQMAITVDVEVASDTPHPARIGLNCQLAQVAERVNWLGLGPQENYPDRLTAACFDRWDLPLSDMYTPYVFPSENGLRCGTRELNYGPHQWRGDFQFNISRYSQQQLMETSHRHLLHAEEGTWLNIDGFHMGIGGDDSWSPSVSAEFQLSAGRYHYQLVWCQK
Chain of Tyrosyl-DNA phosphodiesterase 2 (O95551 whole entry): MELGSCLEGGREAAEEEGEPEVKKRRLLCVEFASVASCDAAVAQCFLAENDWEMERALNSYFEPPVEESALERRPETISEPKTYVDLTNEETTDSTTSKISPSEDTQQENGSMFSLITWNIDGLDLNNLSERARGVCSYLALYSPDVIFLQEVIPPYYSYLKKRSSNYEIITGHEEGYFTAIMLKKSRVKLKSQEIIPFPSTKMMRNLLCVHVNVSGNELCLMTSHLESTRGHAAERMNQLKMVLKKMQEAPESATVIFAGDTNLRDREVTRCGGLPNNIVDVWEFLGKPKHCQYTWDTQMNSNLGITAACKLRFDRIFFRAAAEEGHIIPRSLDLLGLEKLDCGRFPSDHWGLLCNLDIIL
Chain of Large T antigen (P03070 whole entry): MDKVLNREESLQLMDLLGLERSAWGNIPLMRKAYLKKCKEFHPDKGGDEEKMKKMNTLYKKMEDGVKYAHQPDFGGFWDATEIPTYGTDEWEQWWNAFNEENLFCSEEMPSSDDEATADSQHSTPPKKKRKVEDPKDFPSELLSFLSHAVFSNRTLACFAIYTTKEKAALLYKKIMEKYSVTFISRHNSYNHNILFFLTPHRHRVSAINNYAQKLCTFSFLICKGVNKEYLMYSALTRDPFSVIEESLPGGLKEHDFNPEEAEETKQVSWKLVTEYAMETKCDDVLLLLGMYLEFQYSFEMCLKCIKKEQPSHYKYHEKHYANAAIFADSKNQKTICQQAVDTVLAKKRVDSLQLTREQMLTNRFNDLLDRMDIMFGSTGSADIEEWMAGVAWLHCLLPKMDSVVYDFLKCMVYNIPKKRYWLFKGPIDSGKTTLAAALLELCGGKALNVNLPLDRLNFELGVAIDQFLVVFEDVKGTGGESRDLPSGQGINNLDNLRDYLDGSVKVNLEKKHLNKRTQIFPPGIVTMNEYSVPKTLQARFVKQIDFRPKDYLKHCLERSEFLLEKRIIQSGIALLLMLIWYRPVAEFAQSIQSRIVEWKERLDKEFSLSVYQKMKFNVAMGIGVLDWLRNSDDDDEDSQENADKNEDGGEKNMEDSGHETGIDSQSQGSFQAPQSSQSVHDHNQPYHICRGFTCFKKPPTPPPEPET

For `CCOC(=O)c1c(-c2ccc(-c3ccccc3)cc2)csc1NC(=O)CNCCN(C)C`, which AC50 [1] is on record?
Its AC50 is 8.39 µM (active).

What about the IC50 [2] of the same molecule?
Its IC50 is 12.5 µM (active).

And the EC50 [3]?
The EC50 was > 40 µM (inactive).

What about the AC50 [4] of the same molecule?
The AC50 was 14.7 µM (active).

For `COc1cc(-c2nnc(SCc3cc(=O)oc4cc(O)c(O)cc34)o2)cc(OC)c1OC`, which IC50 [5] is on record?
The IC50 was > 2.65 µM (active).

And the IC50 [6]?
The IC50 was > 119 µM (inactive).

What about the IC50 [7] of the same molecule?
The IC50 was 0.493 µM (active).

What about the IC50 [8] of the same molecule?
Its IC50 is 2.8 µM (active).

For `N#Cc1c(NC(=O)c2ccc(Br)o2)n(-c2ccccc2)c2nc3ccccc3nc12`, which IC50 [9] is on record?
Its IC50 is 29.6 µM (active).

What about the IC50 [10] of the same molecule?
Its IC50 is 29.1 µM (inactive).

What about the IC50 [11] of the same molecule?
The IC50 was > 39.8 µM (not active).

For `CCCCCCCCCCOC(=O)Cn1c(COc2ccccc2)[n+](C)c2ccccc21`, which EC50 [12] is on record?
Its EC50 is 6.91 µM (active).

What about the EC50 [13] of the same molecule?
The EC50 was 7.89 µM (active).
